In patent US9963496B2, “Stable glucagon analogues and use for treatment of hypoglycaemia” (Novo Nordisk A/S, priority 2014, dated 2018) one finds IC50 data, which are given here for four compounds.

*1 amine or outer side, *2 acyl side, *3 side chain or, on linkers, in order; H or OH if unused. Where a SMILES comes first, the peptide text is derived from it. Side-chain parts run from the residue outwards. [ ]: non-standard residue; d: D form. The star is where a group is joined. γGlu = O=C(O)[C@H](CCC(=O)[*:2])N[*:1]; Desaminohistidyl = O=C(CCc1c[nH]cn1)*; Aib = CC(C)(N)C(=O)O

For the test, the target named is T1, human glucagon receptor (Homo sapiens, UniProt P47871).
T1 construct: expressed in transfected cells; host or cells: BHK cells, clone BHK hGCGR A3*25; isolated membranes
T1 sequence (P47871 26-477): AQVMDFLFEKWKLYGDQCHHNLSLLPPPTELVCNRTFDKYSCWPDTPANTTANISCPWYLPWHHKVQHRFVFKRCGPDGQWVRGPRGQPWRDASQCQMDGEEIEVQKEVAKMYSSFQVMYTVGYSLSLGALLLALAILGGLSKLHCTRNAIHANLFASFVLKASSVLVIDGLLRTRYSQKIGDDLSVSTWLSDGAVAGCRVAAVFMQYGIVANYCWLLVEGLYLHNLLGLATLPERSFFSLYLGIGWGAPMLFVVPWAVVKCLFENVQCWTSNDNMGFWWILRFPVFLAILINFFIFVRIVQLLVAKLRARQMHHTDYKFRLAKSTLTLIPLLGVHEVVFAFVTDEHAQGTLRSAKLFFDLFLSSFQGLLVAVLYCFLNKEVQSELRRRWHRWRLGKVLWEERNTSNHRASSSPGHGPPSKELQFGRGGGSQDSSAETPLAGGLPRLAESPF
Briefly: Assay (II)(b): glucagon receptor binding, 125I-glucagon displacement on isolated membranes (SPA). As to conditions: displacement of 125I-glucagon, membranes of BHK cells with human glucagon receptor, 2 h at 25° C.; read-out: IC50 hGlucagonR. On the procedure: (b) Glucagon Receptor Binding
The purpose of this assay was to test the in vitro receptor binding activity of the glucagon derivatives of the invention. The receptor binding activity is a measure of affinity of a derivative for the human glucagon receptor.
The receptor binding of each compound to the human glucagon receptor was measured in a displacement binding assay. In this type of assay a labelled ligand (in this case 125I-glucagon) is bound to the receptor. Each derivative is added in a series of concentrations to isolated membranes containing the human glucagon receptor and displacement of the labelled ligand is monitored. The receptor binding is reported as the concentration at which half of the labelled ligand is displaced from the receptor, the IC50 value.
HME buffer consisted of 25 mM HEPES, 2 mM MgCl2 and 1 mM EDTA, and pH was adjusted to 7.4. Binding buffer consisted of 50 mM HEPES supplemented with 5 mM MgCl2, 1 mM CaCl2, 0.02% Tween 20 and 0.1% Ovalbumin, and pH was adjusted to 7.4.
The cells used in this assay (clone BHK hGCGR A3*25) were BHK cells stable transfected with an expression plasmid containing the cDNA encoding the human glucagon receptor.
The cells were grown at 5% CO2 in DMEM, 10% fetal calf serum, 1% Pen/Strep (Penicillin/Streptomycin) and 1.0 mg/mL of the selection marker G418. To make a membrane preparation the cells were grown to approximately 80% confluence. The cells were washed twice in phosphate-buffered saline and harvested. The cells were pelleted using a brief centrifugation and the cell pellet was kept on ice. The cells were lysed by adding approx. 5 mL HME buffer, mix by pipetting and snap freeze in liquid nitrogen. The cell lysate was quickly thawed and HME buffer added to 10 mL. The cell pellet was homogenised with an ULTRA-THURRAX dispersing instrument for 20-30 seconds. The homogenate was centrifuged at 20,000×G, 4° C. for 10 minutes. The pellet was resuspended (homogenised) in 1-2 mL HME buffer. The protein concentration was determined. The membranes were aliquoted and snap frozen in liquid nitrogen and stored at minus 80° C.
• 1. For the receptor binding assay 50 μl of the assay buffer was added to each well of an assay plate. • 2. Test compounds were serially diluted to give the following concentrations: 8×10 EE-7 M, 8×10 EE-8 M, 8×10 EE-9 M, 8×10 EE-10 M, 8×10 EE-11 M, 8×10 EE-12 M and 8×10 EE-13 M. Twenty-five μl were added to appropriate wells in the assay plate. • 3. Cell membrane aliquots were thawed and diluted to their working concentration. Fifty μl were added to each well in the assay plate. • 4. WGA SPA beads were suspended in assay buffer at 20 mg/mL. The suspension was diluted to 10 mg/mL in assay buffer just prior to addition to the assay plate. Fifty μl were added to each well in the assay plate. • 5. The incubation was started by adding 25 μl of 480 pM solution of [125I]-glucagon to each well of the assay plate. A 25 μl aliquot was reserved for measuring total counts/well. • 6. The assay plate was incubated for 2 h at 25° C. • 7. The assay plate was centrifuged for 10 min at 1500 rpm. • 8. The assay plate was read in a Packard TopCount NXT instrument. Calculations
The data from the TopCount instrument were transferred to GraphPad Prism software. The software averaged the values for the replicates and performed a non-linear regression.
(In general: Displacement assays read how much labelled ligand stays bound in the presence of the test substance.)
As to `CC(=O)N[C@@H](CCC(=O)N[C@@H](CCC(=O)N[C@@H](CCC(=O)N[C@@H](CCC(=O)NCCCC[C@H](NC(=O)[C@@H](NC(=O)[C@H](Cc1ccccc1)NC(=O)[C@H](CC(=O)O)NC(=O)[C@H](CCC(N)=O)NC(=O)[C@H](C)NC(=O)[C@H](CCCNC(=N)N)NC(=O)[C@H](CCCNC(=N)N)NC(=O)[C@@H](NC(=O)[C@H](CC(=O)O)NC(=O)[C@H](CC(C)C)NC(=O)[C@H](Cc1ccc(O)cc1)NC(=O)[C@H](CCCCN)NC(=O)[C@H](CO)NC(=O)[C@H](Cc1ccc(O)cc1)NC(=O)[C@H](CC(=O)O)NC(=O)[C@H](CO)NC(=O)[C@@H](NC(=O)[C@H](Cc1ccccc1)NC(=O)[C@@H](NC(=O)CNC(=O)[C@H](Cc1c[nH]cn1)NC(=O)C(C)(C)NC(=O)CCc1c[nH]cn1)[C@@H](C)O)[C@@H](C)O)C(C)C)C(C)C)C(=O)N[C@@H](Cc1c[nH]c2ccccc12)C(=O)N[C@@H](CC(C)C)C(=O)N[C@@H](CC(C)C)C(=O)N[C@@H](CO)C(=O)N[C@H](C(=O)O)[C@@H](C)O)C(=O)O)C(=O)O)C(=O)O)C(=O)O` [Example 10, N^ϵ24-[(4S)-4-[[(4S)-4-[[(4S)-4-[[(4S)-4-acetamido-4-carboxybutanoyl]amino]-4-carboxybutanoyl]amino]-4-carboxybutanoyl]amino]-4-carboxybutanoyl]-[Imp1, Aib2, His3, Val16, Lys24, Leu27, Ser28]-Glucagon] (Desaminohistidyl-[Aib]HGTFTSDYSKYLDVRRAQDFVK([γGlu-γGlu-γGlu-γGlu-Ac])WLLST-OH), the IC50 stood at 0.5 nM.
With `CC(=O)N[C@@H](CCC(=O)N[C@@H](CCC(=O)N[C@@H](CCC(=O)N[C@@H](CCC(=O)NCCCC[C@H](NC(=O)[C@H](CC(C)C)NC(=O)[C@H](CC(C)C)NC(=O)[C@H](Cc1c[nH]c2ccccc12)NC(=O)[C@H](C)NC(=O)[C@@H](NC(=O)[C@H](Cc1ccccc1)NC(=O)[C@H](CC(=O)O)NC(=O)[C@H](CCC(N)=O)NC(=O)[C@H](C)NC(=O)[C@H](CCCNC(=N)N)NC(=O)[C@H](CCCNC(=N)N)NC(=O)[C@H](CO)NC(=O)[C@H](CCC(=O)O)NC(=O)[C@H](CC(C)C)NC(=O)[C@H](Cc1ccc(O)cc1)NC(=O)[C@H](CCCCN)NC(=O)[C@H](CO)NC(=O)[C@H](Cc1ccc(O)cc1)NC(=O)[C@H](CC(=O)O)NC(=O)[C@H](CO)NC(=O)[C@@H](NC(=O)[C@H](Cc1ccccc1)NC(=O)[C@@H](NC(=O)CNC(=O)[C@H](Cc1c[nH]cn1)NC(=O)C(C)(C)NC(=O)CCc1c[nH]cn1)[C@@H](C)O)[C@@H](C)O)C(C)C)C(=O)N[C@H](C(=O)O)[C@@H](C)O)C(=O)O)C(=O)O)C(=O)O)C(=O)O` [Example 4, N^ϵ28-[(4S)-4-[[(4S)-4-[[(4S)-4-[[(4S)-4-acetamido-4-carboxybutanoyl]amino]-4-carboxybutanoyl]amino]-4-carboxybutanoyl]amino]-4-carboxybutanoyl]-[Imp1, Aib2, His3, Glu15, Ala24, Leu27, Lys28]-Glucagon] (Desaminohistidyl-[Aib]HGTFTSDYSKYLESRRAQDFVAWLLK([γGlu-γGlu-γGlu-γGlu-Ac])T-OH) the figure was 1.8 nM; with `CC(=O)N[C@@H](CCC(=O)N[C@@H](CCC(=O)N[C@@H](CCC(=O)N[C@@H](CCC(=O)NCCCC[C@H](NC(=O)[C@@H](NC(=O)[C@H](Cc1ccccc1)NC(=O)[C@H](CC(=O)O)NC(=O)[C@H](CCC(N)=O)NC(=O)[C@H](C)NC(=O)[C@H](CCCNC(=N)N)NC(=O)[C@H](CCCNC(=N)N)NC(=O)[C@H](CC(C)C)NC(=O)[C@H](CC(=O)O)NC(=O)[C@H](CC(C)C)NC(=O)[C@H](Cc1ccc(O)cc1)NC(=O)[C@H](CCCCN)NC(=O)[C@H](CO)NC(=O)[C@H](Cc1ccc(O)cc1)NC(=O)[C@H](CC(=O)O)NC(=O)[C@H](CO)NC(=O)[C@@H](NC(=O)[C@H](Cc1ccccc1)NC(=O)[C@@H](NC(=O)CNC(=O)[C@H](Cc1c[nH]cn1)NC(=O)C(C)(C)NC(=O)CCc1c[nH]cn1)[C@@H](C)O)[C@@H](C)O)C(C)C)C(=O)N[C@@H](Cc1c[nH]c2ccccc12)C(=O)N[C@@H](CC(C)C)C(=O)N[C@@H](CC(C)C)C(=O)N[C@@H](CO)C(=O)N[C@H](C(=O)O)[C@@H](C)O)C(=O)O)C(=O)O)C(=O)O)C(=O)O` [Example 1, N^ϵ24-[(4S)-4-[[(4S)-4-[[(4S)-4-[[(4S)-4-acetamido-4-carboxybutanoyl]amino]-4-carboxybutanoyl]amino]-4-carboxybutanoyl]amino]-4-carboxybutanoyl]-[Imp1, Aib2, His3, Leu16, Lys24, Leu27, Ser28]-Glucagon] (Desaminohistidyl-[Aib]HGTFTSDYSKYLDLRRAQDFVK([γGlu-γGlu-γGlu-γGlu-Ac])WLLST-OH), 0.2 nM.
On to `CC(=O)N[C@@H](CCC(=O)N[C@@H](CCC(=O)N[C@@H](CCC(=O)N[C@@H](CCC(=O)NCCCC[C@H](NC(=O)[C@@H](NC(=O)[C@H](Cc1ccccc1)NC(=O)[C@H](CCC(=O)O)NC(=O)[C@H](CCC(N)=O)NC(=O)[C@H](C)NC(=O)[C@H](CCCNC(=N)N)NC(=O)[C@H](CCCNC(=N)N)NC(=O)[C@H](CC(C)C)NC(=O)[C@H](CC(=O)O)NC(=O)[C@H](CC(C)C)NC(=O)[C@H](Cc1ccc(O)cc1)NC(=O)[C@H](CCCCN)NC(=O)[C@H](CO)NC(=O)[C@H](Cc1ccc(O)cc1)NC(=O)[C@H](CC(=O)O)NC(=O)[C@H](CO)NC(=O)[C@@H](NC(=O)[C@H](Cc1ccccc1)NC(=O)[C@@H](NC(=O)CNC(=O)[C@H](Cc1c[nH]cn1)NC(=O)[C@H](CO)NC(=O)CCc1c[nH]cn1)[C@@H](C)O)[C@@H](C)O)C(C)C)C(=O)N[C@@H](Cc1c[nH]c2ccccc12)C(=O)N[C@@H](CC(C)C)C(=O)N[C@@H](CC(C)C)C(=O)N[C@@H](CO)C(=O)N[C@H](C(=O)O)[C@@H](C)O)C(=O)O)C(=O)O)C(=O)O)C(=O)O` [Example 8, N^ϵ24-[(4S)-4-[[(4S)-4-[[(4S)-4-[[(4S)-4-acetamido-4-carboxybutanoyl]amino]-4-carboxybutanoyl]amino]-4-carboxybutanoyl]amino]-4-carboxybutanoyl]-[Imp1, His3, Leu16, Glu21, Lys24, Leu27, Ser28]-Glucagon] (Desaminohistidyl-SHGTFTSDYSKYLDLRRAQEFVK([γGlu-γGlu-γGlu-γGlu-Ac])WLLST-OH), for which the IC50 stood at 0.2 nM.

As a reminder, the IC50 is the concentration needed to halve the response being measured.
